The values below come from patent US10112937B2, “P2X7 modulators and methods of use” (Janssen Pharmaceutica NV, priority 2013, dated 2018).

Experiment [1] concerns the target T1, human P2X7 (Homo sapiens (Human), UniProt Q99572). The experiment is described as follows: P2X7 antagonism in human PBMCs (IL-1β release after LPS + Bz-ATP, ELISA). Format: cell-based. The conditions noted are these: human PBMCs, test compound 10 μM. On the technique in general: An ELISA detects its analyte on a solid surface through an enzyme-linked reagent.
Experiment [2] addresses T1, human P2X7. The experiment is described as follows: P2X7 antagonism in human whole blood (IL-1β release after LPS + Bz-ATP, ELISA). It counts as cell-based. The conditions noted are these: LPS 30 ng/ml + 1 mM Bz-ATP.
Method: P2X7 Antagonism in Human Peripheral Blood Mononuclear Cells (PBMCs) and Human Whole Blood.
Human blood was collected using a blood donor program. PBMCs were isolated from blood using a Ficoll density gradient technique. Briefly, blood was laid on Ficoll solution and centrifuged at RT for 20 minutes at 2000 rpm. The buffy layer (between red blood cells and plasma) was carefully collected by aspiration, washed with PBS and centrifuged again at 1500 rpm for 15 minutes. The resulting cell pellet was washed and plated on 96 well-plates for experiments. For the Human Whole Blood experiments, 150 μl of human blood was platted on 96 well-plates. Lipopolysaccharide (LPS) (30 ng/ml) was added to each well and incubated for 1 hour. Test compounds were then added and incubated for 30 minutes. The P2X7 agonist, 2′(3′)-O-(4-benzoylbenzoyl) adenosine 5′ triphosphate (Bz-ATP) was then added at a final concentration of 0.5 mM (PBMC) or 1 mM (blood). Cells were incubated for an additional 1.5 hours. At that point, supernatant was collected and stored for IL-1β assay using manufacturer's protocol for enzyme-linked immunosorbent assay (ELISA). Data was expressed as percent control, where control is defined as the difference in IL-1β release in LPS+Bz-ATP samples and LPS only samples. […] Data are analyzed and graphed on Graphpad Prism 5. […]
Experiment [3] concerns the target T1, human P2X7. The experiment is described as follows: Ca2+ flux (FLIPR) in 1321N1 cells expressing recombinant human P2X7.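 Further: cells loaded with Calcium-4 dye, preincubated with test compound for 30 min, fluorescence change read 180 s after agonist addition.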 Conditions: 1321N1 cells, recombinant human P2X7, 250 μM BzATP. It counts as cell-based. A general note: Calcium flux is commonly read through the fluorescence of an indicator in the cells.
Method: (§1) P2X7 Antagonism in Recombinant Human P2X7 Cells or Recombinant Rat P2X7 Cells: (a) Ca^2+ Flux and (b) Radioligand Binding
(§2) 1321N1 cells expressing the recombinant human or rat P2X7 channel was cultured in HyQ DME/(HyClone/Dulbecco's Modified Eagle Medium) high glucose supplemented with 10% Fetal Bovine Serum (FBS) and appropriate selection marker. Cells were seeded at a density of 25000 cells/well (96-well clear bottom black walled plates) in 100 μl volume/well. On the day of the experiment, cell plates were washed with assay buffer, containing (in mM): 130 NaCl, 2 KCl, 1 CaCl2, 1 MgCl2, 10 HEPES, 5 glucose; pH 7.40 and 300 mOs. After the wash, cells were loaded with the Calcium-4 dye (Molecular Device) and incubated in the dark for 60 minutes. Test compounds were prepared at 250× the test concentration in neat DMSO. Intermediate 96-well compound plates were prepared by transferring 1.2 μL of the compound into 300 μL of assay buffer. A further 3× dilution occurred when transferring 50 μL/well of the compound plate to 100 μL/well in the cell plate. Cells were incubated with test compounds and dye for 30 minutes. […] The fluorescence change was measured 180 seconds after adding the agonist.
Experiment [4] addresses T2, rat P2X7 (Rattus norvegicus (Rat), UniProt Q64663). The experiment is described as follows: Ca2+ flux (FLIPR) in 1321N1 cells expressing recombinant rat P2X7.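 Further: Calcium-4 dye fluorescence change read 180 s after agonist addition, with cells preincubated 30 min with compound and dye in 96-well plates.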 Format: cell-based. The conditions noted are these: 1321N1 cells, recombinant rat P2X7, 250 μM BzATP.
Method: as §1, §2
The target of experiment [5] is T1, human P2X7. The experiment is described as follows: Radioligand binding ([3H]A-804598), human P2X7-1321N1 cell membranes. The conditions noted are these: human P2X7-1321N1 membranes, tritiated A-804598.
Method: (§3) human or rat P2X7-1321N1 cells were collected and frozen @−80° C. On the day of the experiment, cell membrane preparations were made according to standard published methods. […] The assay was terminated by filtration (GF/B filters pre-soaked with 0.3% PEI) and washed with washing buffer (Tris-HCl 50 mM). The IC50 generated in the binding assay was corrected for tracer concentration and affinity of the tracer to derive at the affinity (Ki) of the test compounds. […] For analysis, each concentration point is averaged from triplicate values and the averaged values are plotted on Graphpad Prism.
The target in experiment [6] is T2, rat P2X7. The experiment is described as follows: Radioligand binding ([3H]A-804598), rat P2X7-1321N1 cell membranes. Conditions: rat P2X7-1321N1 membranes, tritiated A-804598.
Method: as §3

T1 sequence (Q99572 whole entry): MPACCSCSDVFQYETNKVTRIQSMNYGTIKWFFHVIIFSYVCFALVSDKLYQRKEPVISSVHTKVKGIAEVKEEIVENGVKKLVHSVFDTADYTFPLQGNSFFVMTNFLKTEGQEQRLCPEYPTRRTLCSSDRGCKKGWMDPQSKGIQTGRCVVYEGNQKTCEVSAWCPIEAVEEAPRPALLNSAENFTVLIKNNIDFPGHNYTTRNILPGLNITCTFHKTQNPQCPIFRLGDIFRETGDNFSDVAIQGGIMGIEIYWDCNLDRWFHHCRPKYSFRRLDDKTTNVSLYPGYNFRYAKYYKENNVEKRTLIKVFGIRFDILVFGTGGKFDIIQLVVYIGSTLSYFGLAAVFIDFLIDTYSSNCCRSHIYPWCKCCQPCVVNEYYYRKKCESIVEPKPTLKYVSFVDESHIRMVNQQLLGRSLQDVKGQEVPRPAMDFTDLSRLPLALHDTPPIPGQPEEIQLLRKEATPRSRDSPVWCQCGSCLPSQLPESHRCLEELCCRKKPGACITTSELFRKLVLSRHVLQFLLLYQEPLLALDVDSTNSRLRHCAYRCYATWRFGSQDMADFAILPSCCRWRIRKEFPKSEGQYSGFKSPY
T2 sequence (Q64663 whole entry): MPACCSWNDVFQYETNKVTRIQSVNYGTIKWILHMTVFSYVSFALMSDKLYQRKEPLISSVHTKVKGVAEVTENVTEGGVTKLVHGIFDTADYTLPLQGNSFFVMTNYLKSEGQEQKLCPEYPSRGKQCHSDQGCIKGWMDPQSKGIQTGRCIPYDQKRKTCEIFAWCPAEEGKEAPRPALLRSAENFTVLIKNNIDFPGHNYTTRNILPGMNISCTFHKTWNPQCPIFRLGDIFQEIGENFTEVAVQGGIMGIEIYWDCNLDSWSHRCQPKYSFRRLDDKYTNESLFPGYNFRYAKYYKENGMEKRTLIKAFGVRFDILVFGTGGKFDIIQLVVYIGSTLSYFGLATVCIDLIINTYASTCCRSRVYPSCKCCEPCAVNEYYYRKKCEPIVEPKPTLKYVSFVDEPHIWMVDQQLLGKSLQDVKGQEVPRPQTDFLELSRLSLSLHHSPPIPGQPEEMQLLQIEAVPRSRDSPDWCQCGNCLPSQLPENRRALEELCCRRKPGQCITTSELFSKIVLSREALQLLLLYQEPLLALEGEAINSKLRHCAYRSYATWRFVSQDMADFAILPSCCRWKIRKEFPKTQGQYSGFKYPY

For the molecule `Cc1ccnc(-n2nnc3c2CCN(C(=O)c2cccc(C(F)(F)F)c2Cl)[C@@H]3C)n1` (single isomer, unassigned) [Example 235, (4R*)-(2-Chloro-3-(trifluoromethyl)phenyl)(4-methyl-1-(4-methylpyrimidin-2-yl)-6,7-dihydro-1H-[1,2,3]triazolo[4,5-c]pyridin-5(4H)-yl)methanone], at human P2X7 [1], the “PBMC 10 μM (% control)” value is −3.7 % control. Further, the IC50 (in general, the concentration that inhibits the measured activity by half) at human P2X7 [2] was 17 nM.
`Cc1cc(-n2nnc3c2CCN(C(=O)c2ccnc(C(F)(F)F)c2Cl)[C@@H]3C)ncc1F` (single isomer, unassigned) [Example 371, (R*)-(3-chloro-2-(trifluoromethyl)pyridin-4-yl)(1-(5-fluoro-4-methylpyridin-2-yl)-4-methyl-6,7-dihydro-1H-[1,2,3]triazolo[4,5-c]pyridin-5(4H)-yl)methanone]: on human P2X7 [1], the “PBMC 10 μM (% control)” value was −2.3 % control. Moreover, the IC50 is 4.3 nM at human P2X7 [3] and 42.5 nM on rat P2X7 [4]. Further, the Ki – broadly, the dissociation constant of the complex between target and ligand, obtained from inhibition or displacement – on human P2X7 [5] amounted to 17.6 nM; at rat P2X7 [6] it was 47.3 nM.
